Consider 38 molecules from patent publication US6150385A, “1,3,4-thiadiazoles useful for the treatment of CMV infections” (Pharmacia & Upjohn Company, priority 1999, dated 2000).

For the experiment, the target named is T1, HCMV polymerase (Human cytomegalovirus, UniProt P08546).
T1 construct: made in house; host or cells: SF-9 insect cells infected with recombinant baculovirus
T1 sequence (P08546 whole entry): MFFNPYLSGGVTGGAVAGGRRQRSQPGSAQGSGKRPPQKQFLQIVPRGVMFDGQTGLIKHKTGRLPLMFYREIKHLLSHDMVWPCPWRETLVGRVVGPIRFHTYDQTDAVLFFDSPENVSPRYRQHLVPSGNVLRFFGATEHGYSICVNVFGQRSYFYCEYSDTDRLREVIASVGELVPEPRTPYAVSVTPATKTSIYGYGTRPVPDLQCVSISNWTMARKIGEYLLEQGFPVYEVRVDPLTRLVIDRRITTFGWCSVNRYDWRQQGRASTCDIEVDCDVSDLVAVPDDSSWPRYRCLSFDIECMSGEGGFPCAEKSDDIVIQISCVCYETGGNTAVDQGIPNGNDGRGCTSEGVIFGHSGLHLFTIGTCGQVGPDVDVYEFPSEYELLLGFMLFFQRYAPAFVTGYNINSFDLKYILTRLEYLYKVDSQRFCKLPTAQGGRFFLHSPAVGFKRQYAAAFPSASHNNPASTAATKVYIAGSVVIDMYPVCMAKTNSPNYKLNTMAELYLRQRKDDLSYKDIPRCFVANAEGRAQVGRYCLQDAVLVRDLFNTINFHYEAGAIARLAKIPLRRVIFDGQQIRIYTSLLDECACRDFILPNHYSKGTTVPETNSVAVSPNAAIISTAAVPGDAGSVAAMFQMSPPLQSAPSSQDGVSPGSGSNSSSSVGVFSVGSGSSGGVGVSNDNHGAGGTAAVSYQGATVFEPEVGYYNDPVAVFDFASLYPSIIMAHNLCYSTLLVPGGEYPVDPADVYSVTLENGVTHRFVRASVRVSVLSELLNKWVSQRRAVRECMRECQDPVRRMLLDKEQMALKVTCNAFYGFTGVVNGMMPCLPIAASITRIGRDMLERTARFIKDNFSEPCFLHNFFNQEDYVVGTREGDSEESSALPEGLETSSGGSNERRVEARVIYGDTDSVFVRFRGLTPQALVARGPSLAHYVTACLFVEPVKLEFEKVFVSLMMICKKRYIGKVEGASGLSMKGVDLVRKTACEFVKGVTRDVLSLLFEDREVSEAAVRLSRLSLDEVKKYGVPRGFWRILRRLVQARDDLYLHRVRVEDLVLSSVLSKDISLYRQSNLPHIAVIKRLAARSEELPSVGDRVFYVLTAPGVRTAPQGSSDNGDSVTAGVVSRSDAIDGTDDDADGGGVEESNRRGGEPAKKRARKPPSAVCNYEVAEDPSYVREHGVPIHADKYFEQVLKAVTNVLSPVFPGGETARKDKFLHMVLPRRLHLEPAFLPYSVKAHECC
The experiment in a line: HCMV polymerase assay (scintillation proximity assay). It is filed as biochemical. The note with it: percentage of inhibition at 25 μM concentration in CMV polymerase assay. The method, boiled down: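 Values are percent inhibition at 25 μM, measured by scintillation proximity after capture of biotinylated poly(dA)-oligo(dT) (6 nM) extended with 90 nM 3H-dTTP. Recombinant SF-9-derived enzyme reacted 30 min at 25 or 37 °C in HEPES pH 7.5/KCl/MgCl2/BSA buffer, ±2 mM CHAPS, before EDTA termination.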
Turning to `O=C(/C=C/c1ccccc1)Nc1nnc(NCCCNC2CCCCC2)s1` [compound 124, (E)-N-(5-{[3-(cyclohexylamino)propyl]amino}-1,3,4-thiadiazol-2-yl)-3-phenyl-2-propenamide], testing at 25 µM gave an inhibition of 59.2%. Under `NS(=O)(=O)c1ccc(CCNc2nnc(NC(=O)/C=C/c3ccccc3Cl)s2)cc1` [compound 125, (E)-N-(5-{[4-(aminosulfonyl)phenethyl]amino}-1,3,4-thiadizol-2-yl)-3-(2-chlorophenyl)-2-propenamide] stands 58.9%; under `O=C(Nc1nnc(NCCCNC2CCCCC2)s1)c1ccc([N+](=O)[O-])o1` [compound 126, N-(5-{[3-(cyclohexylamino)propyl]amino}-1,3,4-thiadiazol-2-yl)-5-nitro-2-furamide], 58.9%; under `N#Cc1ccc(C(=O)Nc2nnc(NCCCNC3CCCCC3)s2)cc1` [compound 127], 58.5%.

Turning to `CC(C)c1cc(C(C)C)c(C(=O)Nc2nnc(NCCc3ccc(S(N)(=O)=O)cc3)s2)c(C(C)C)c1` [compound 128, N-(5-{[4-(aminosulfonyl)phenethyl]amino}1,3,4-thiadiazol-2-yl)-2,4,6-triisopropylbenzamide], the inhibition (commonly the drop in the measured response relative to a control, in per cent) at 25 µM was 58.3%. `CCCCCCCC/C=C/CCCCCCCC(=O)Nc1nnc(NCCSCC)s1` [compound 129, (E)-N-(5-{[2-(ethylsulfanyl)ethyl]amino}1,3,4-thiadiazol-2-yl)-9-octadecenamide] had an inhibition at 25 µM of 58.3%. Then `O=C(/C=C/c1ccccc1)Nc1nnc(NCCCN2CCCC2=O)s1` [compound 130, (E)-N-(5-{[3-(2-oxo-1-pyrrolidinyl)propyl]amino}-1,3,4-thiadiazol-2-yl)-3-phenyl-2-propenamide], with 58.2%; and `O=C(Nc1nnc(NCCCCc2ccccc2)s1)c1ccc([N+](=O)[O-])o1` [compound 131, 5-nitro-N-{5-[(4-phenylbutyl)amino]-1,3,4-thiadiazol-2-yl}-2-furamide], with 58%; and `CCOC(=O)N1CCC(Nc2nnc(NC(=O)c3c(Cl)cccc3Cl)s2)CC1` [compound 132, ethyl 4-({5-[(2,6-dichlorobenzoyl)amino]-1,3,4-thiadiazol-2-yl}amino)tetrahydro-1(2H)-pyridinecarboxylate], with 57%.

Take `O=C(/C=C/c1ccccc1)Nc1nnc(NCCCn2ccnc2)s1` [compound 133, (E)-N-(5-{[3-(1H-imidazol-1-yl)propyl]amino}-1,3,4-thiadiazol-2-yl)-3-phenyl-2-propenamide]: the inhibition at 25 µM was 57%.

Molecule `COc1ccc(CNc2nnc(NC(=O)c3ccc(I)cc3)s2)cc1OC` [compound 134, N-{5-[(3,4-dimethoxybenzyl)amino]-1,3,4-thiadiazol-2-yl}-4-iodobenzamide] registered an inhibition at 25 µM of 56.9%. `O=C(Nc1nnc(NCCCN2CCCC2=O)s1)c1cccc([N+](=O)[O-])c1` [compound 135, 3-nitro-N-(5-{[3-(2-oxo-1-pyrrolidinyl)propyl]amino}-1,3,4-thiadiazol-2-yl)benzamide]: 25 µM produced 56.6% inhibition. Under `CCOc1ccc2ccccc2c1C(=O)Nc1nnc(NCc2cccc3ccccc23)s1` [compound 136, 2-ethoxy-N-{5-[(1-naphthylmethyl)amino]-1,3,4-thiadiazol-2-yl}-1-naphthamide] stands 56.5%. Then `O=C(Nc1nnc(NCCCNC2CCCCC2)s1)c1cccc([N+](=O)[O-])c1` [compound 137, N-(5-{[3-(cyclohexylamino)propyl]amino}-1,3,4-thiadiazol-2-yl)-3-nitrobenzamide], with 56.4%.

The molecule `O=C(Nc1nnc(NCCCCc2ccccc2)s1)c1ccc(C(F)(F)F)cc1` [compound 138, N-{5-[(4-phenylbutyl)amino]-1,3,4-thiadiazol-2-yl}-4-(trifluoromethyl)benzamide] came in with an inhibition at 25 µM of 56.2%.

`O=C(/C=C/c1ccccc1)Nc1nnc(NCc2ccccn2)s1` [compound 139, (E)-3-phenyl-N-{5-[(2-pyridinylmethyl)amino]-1,3,4-thiadiazol-2-yl}-2-propenamide] showed an inhibition at 25 µM of 56.2%. Under `N#Cc1ccc(C(=O)Nc2nnc(NCc3ccc(Cl)c(Cl)c3)s2)cc1` [compound 140, 4-cyano-N-{5-[(3,4-dichlorobenzyl)amino]-1,3,4-thiadiazol-2-yl}benzamide] stands 56.2%; under `CCOc1ccc2ccccc2c1C(=O)Nc1nnc(NCCc2c[nH]c3ccccc23)s1` [compound 141, 2-ethoxy-N-(5-{[2-(1H-indol-3-yl)ethyl]amino}-1,3,4-thiadiazol-2-yl)-1-naphthamide], 55.7%; under `NS(=O)(=O)c1ccc(CCNc2nnc(NC(=O)c3ccc(Cl)c(Cl)c3)s2)cc1` [compound 142, N-(5-{[4-(aminosulfonyl)phenethyl]amino}-1,3,4-thiadiazol-2-yl)-3,4-dichlorobenzamide], 55.4%. Then `N#Cc1ccc(C(=O)Nc2nnc(NCCCCc3ccccc3)s2)cc1` [compound 143, 4-cyano-N-{5-[(4-phenylbutyl)amino]-1,3,4-thiadiazol-2-yl}benzamide], with 55.4%. Molecule `O=C(Nc1nnc(NCc2ccc(F)cc2)s1)c1c(Cl)cccc1Cl` [compound 144, 2,6-dichloro-N-{5-[(4-fluorobenzyl)amino]-1,3,4-thiadiazol-2-yl}benzamide] showed an inhibition at 25 µM of 55.2%.

Regarding `CCCCCCCCCCCNc1nnc(NC(=O)c2c(OCC)ccc3ccccc23)s1` [compound 145, 2-ethoxy-N-[5-(undecylamino)-1,3,4-thiadiazol-2-yl]-1-naphthamide], 25 µM produced 54.9% inhibition.

`N#CCCNc1nnc(NC(=O)c2c(Cl)cccc2Cl)s1` [compound 146, 2,6-dichloro-N-{5-[(2-cyanoethyl)amino]-1,3,4-thiadiazol-2-yl}benzamide]: at 25 µM the inhibition was 54.8%. Under `CCCCCCCCCCCNc1nnc(NC(=O)c2ccc(I)cc2)s1` [compound 147, 4-iodo-N-[5-(undecylamino)-1,3,4-thiadiazol-2-yl]benzamide] stands 54.7%; under `CCSCCNc1nnc(NC(=O)c2ccc(I)cc2)s1` [compound 148, N-(5-{[2-(ethylsulfanyl)ethyl]amino}-1,3,4-thiadiazol-2-yl)-4-iodobenzamide], 54.6%; under `CCCCCCCC/C=C/CCCCCCCC(=O)Nc1nnc(NCCc2c[nH]c3ccccc23)s1` [compound 149, (E)-N-(5-{[2-(1H-indol-3-yl)ethyl]amino}-1,3,4-thiadiazol-2-yl)-9-octadecenamide], 54.5%. `O=C(Nc1nnc(NCCCN2CCCC2=O)s1)c1cc2ccccc2s1` [compound 150, N-(5-{[3-(2-oxo-1-pyrrolidinyl)propyl]amino}-1,3,4-thiadiazol-2-yl)-1-benzothiophene-2-carboxamide] came in with an inhibition at 25 µM of 54.5%. In turn, `O=C(Nc1nnc(NC2CCN(Cc3ccccc3)CC2)s1)c1c(Cl)cccc1Cl` [compound 151, N-{5-[(1-benzyl-4-piperidinyl)amino]-1,3,4-thiadiazol-2-yl}-2,6-dichlorobenzamide] gave an inhibition at 25 µM of 54%. Then `NS(=O)(=O)c1ccc(CCNc2nnc(NC(=O)c3ccc(Br)cc3)s2)cc1` [compound 152, N-(5-{[4-(aminosulfonyl)phenethyl]amino}-1,3,4-thiadiazol-2-yl)-4-bromobenzamide], with 53.9%; and `O=C(/C=C/c1ccccc1)Nc1nnc(NCCc2c[nH]c3ccccc23)s1` [compound 153, (E)-N-(5-{[2-(1H-indol-3-yl)ethyl]amino}-1,3,4-thiadiazol-2-yl)-3-phenyl-2-propenamide], with 53.7%. `O=C(/C=C/c1ccccc1Cl)Nc1nnc(NCC(c2ccccc2)c2ccccc2)s1` [compound 154, (E)-3-(2-chlorophenyl)-N-{5-[(2,2-diphenylethyl)amino]-1,3,4-thiadiazol-2-yl}-2-propenamide] gave an inhibition at 25 µM of 53.6%.

`N#Cc1ccc(C(=O)Nc2nnc(NCc3cccc4ccccc34)s2)cc1` [compound 155, 4-cyano-N-{5-[(1-naphthylmethyl)amino]-1,3,4-thiadiazol-2-yl}benzamide] displayed an inhibition at 25 µM of 53.3%.

`O=C(Nc1nnc(NCc2cccnc2)s1)c1c(Cl)cccc1Cl` [compound 156, 2,6-dichloro-N-{5-[(3-pyridinylmethyl)amino]-1,3,4-thiadiazol-2-yl}benzamide] came in with an inhibition at 25 µM of 53.2%. Then `CCOc1ccc2ccccc2c1C(=O)Nc1nnc(NC2CCCCCC2)s1` [compound 157, N-[5-(cycloheptylamino)-1,3,4-thiadiazol-2-yl]-2-ethoxy-1-naphthamide], with 53%; and `N#Cc1ccc(C(=O)Nc2nnc(NCCCN3CCCC3=O)s2)cc1` [compound 158, 4-cyano-N-(5-{[3-(2-oxo-1-pyrrolidinyl)propyl]amino}-1,3,4-thiadiazol-2-yl)benzamide], with 52.9%. Then `O=C(Nc1nnc(NCCCNC2CCCCC2)s1)c1ccc(Br)cc1` [compound 159, 4-bromo-N-(5-{[3-(cyclohexylamino)propyl]amino}-1,3,4-thiadiazol-2-yl)benzamide], with 52.8%; and `O=C(Nc1nnc(NCCCNC2CCCCC2)s1)c1ccc(F)cc1F` [compound 160, N-(5-{[3-(cyclohexylamino)propyl]amino}-1,3,4-thiadiazol-2-yl)-2,4-difluorobenzamide], with 52.6%; and `O=C(/C=C/c1ccccc1Cl)Nc1nnc(NCc2ccccn2)s1` [compound 161, (E)-3-(2-chlorophenyl)-N-{5-[(2-pyridinylmethyl)amino]-1,3,4-thiadiazol-2-yl}-2-propenamide], with 51.9%.
